In patent publication US12473262B2, “Aryl hydrocarbon receptor activators” (Oregon State University, priority 2019, dated 2025):

Molecular target: aryl hydrocarbon receptor (AhR) (Mus musculus (Mouse), UniProt P30561)
Assay: AhR ligand screening: AhRE-luciferase reporter in transfected Hepa1 cells
Type: cell-based
Conditions: for Fold @ 1 nM: fold change of luciferase expression at 1 nM test compound relative to vehicle (0.1% DMSO); for Fold @ 100 nM: fold change of luciferase expression at 100 nM test compound relative to vehicle (0.1% DMSO); for Fold @ 10 uM: fold change of luciferase expression at 10 uM test compound relative to vehicle (0.1% DMSO); for Fold relative to benchmark @ 100 nM: luciferase expression at 100 nM test compound relative to 100 nM benchmark compound 11-cl-BBQ
Text: The AhR is a ligand-activated transcription factor that dimerizes with ARNT to regulate gene expression, and genes that are regulated by AhR ligands have AhR response elements (AhRE) in their promotor regions.
Briefly, Hepa1 cells were transfected with a reporter construct consisting of AhRE linked to luciferase. The addition of AhR ligands to the transfected cells induces luciferase production that is directly proportional to the amount of AhR activation. We used this reporter system to identify novel compounds with AhR-activating properties. Transfected Hepa1 cells were plated at a density of 1×10^4 cells/well in 100 μL of cell culture media in 96 well plates and grown overnight. […] Following incubation with the compounds, the media was removed, and cells were harvested with lysis buffer. The lysates were transferred to opaque 96 well plates, where they were assayed well-by-well for luciferase activity by injection of luciferase assay substrate with a 2 sec mixing time and 15 sec integration period on a Tropix TR717 microplate luminometer. Data were expressed as fold induction of luciferase relative to vehicle (0.1% DMSO) treated cells.

Sequence of aryl hydrocarbon receptor (AhR) (P30561 10-805): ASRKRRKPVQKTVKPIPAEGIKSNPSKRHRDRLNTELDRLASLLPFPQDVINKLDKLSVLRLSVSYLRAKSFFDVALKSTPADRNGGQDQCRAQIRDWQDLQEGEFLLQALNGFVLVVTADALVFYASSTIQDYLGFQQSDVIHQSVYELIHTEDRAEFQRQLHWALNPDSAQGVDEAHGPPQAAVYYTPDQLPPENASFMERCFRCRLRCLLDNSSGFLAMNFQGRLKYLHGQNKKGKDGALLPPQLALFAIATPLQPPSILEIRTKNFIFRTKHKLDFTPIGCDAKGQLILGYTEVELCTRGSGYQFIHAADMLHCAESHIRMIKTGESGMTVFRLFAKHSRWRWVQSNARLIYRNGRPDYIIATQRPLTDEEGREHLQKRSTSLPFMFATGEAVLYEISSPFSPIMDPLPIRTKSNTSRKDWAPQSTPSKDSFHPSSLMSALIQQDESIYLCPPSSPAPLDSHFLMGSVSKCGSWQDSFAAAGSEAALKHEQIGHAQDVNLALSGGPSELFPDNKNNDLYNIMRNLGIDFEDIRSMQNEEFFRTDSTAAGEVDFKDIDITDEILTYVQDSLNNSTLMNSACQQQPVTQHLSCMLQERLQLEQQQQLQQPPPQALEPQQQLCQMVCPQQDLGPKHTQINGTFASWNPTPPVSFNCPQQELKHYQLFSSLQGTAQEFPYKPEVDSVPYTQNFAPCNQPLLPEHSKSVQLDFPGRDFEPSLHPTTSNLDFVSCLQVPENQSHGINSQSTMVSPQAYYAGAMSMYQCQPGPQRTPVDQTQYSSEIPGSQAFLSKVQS
Sequence of aryl hydrocarbon receptor (AhR) (P53762 whole entry partner): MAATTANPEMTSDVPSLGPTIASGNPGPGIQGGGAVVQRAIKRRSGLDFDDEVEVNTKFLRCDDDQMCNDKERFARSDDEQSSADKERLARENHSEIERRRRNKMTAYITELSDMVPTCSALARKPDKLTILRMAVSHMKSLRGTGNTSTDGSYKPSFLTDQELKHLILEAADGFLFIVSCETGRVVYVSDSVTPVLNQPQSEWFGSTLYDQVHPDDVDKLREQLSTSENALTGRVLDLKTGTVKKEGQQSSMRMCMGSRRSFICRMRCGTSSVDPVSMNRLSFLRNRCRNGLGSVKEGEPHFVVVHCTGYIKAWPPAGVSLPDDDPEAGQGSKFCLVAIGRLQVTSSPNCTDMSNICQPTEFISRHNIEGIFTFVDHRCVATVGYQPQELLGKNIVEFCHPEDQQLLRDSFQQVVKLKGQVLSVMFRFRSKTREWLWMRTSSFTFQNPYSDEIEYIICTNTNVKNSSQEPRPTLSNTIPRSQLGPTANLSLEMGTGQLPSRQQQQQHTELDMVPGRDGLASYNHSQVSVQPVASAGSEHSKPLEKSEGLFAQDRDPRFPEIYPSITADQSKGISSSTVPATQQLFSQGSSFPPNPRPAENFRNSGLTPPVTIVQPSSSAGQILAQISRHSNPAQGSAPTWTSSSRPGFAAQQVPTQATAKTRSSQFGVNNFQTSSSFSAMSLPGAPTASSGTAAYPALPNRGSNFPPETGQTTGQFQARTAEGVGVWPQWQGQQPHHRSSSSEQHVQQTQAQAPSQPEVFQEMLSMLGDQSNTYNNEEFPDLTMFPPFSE

| Structure (SMILES) | Fold @ 1 nM [fold] | Fold @ 100 nM [fold] | Fold @ 10 uM [fold] | Fold relative to benchmark @ 100 nM [fold] |
| --- | --- | --- | --- | --- |
| O=S(=O)(C1CC1)n1c(-c2cccc3ccccc23)nc2cc(Cl)ccc21 [Compound 783] | 1 | 1 | 24 | 0.03 |
| O=C(c1ccccc1)n1c(-c2cccc3ccccc23)nc2cc(Br)ccc21 [Compound 691] | 2 | 26 | 34 | 1 |
| O=C(c1ccc(F)c(F)c1)n1c(-c2ccc(F)c3ccccc23)nc2cc(Cl)ccc21 [Compound 792] | 1 | 2 | 19 | 0.08 |
| COc1ccc(C(=O)n2c(-c3cc4ccccc4s3)nc3ccc(Cl)cc32)cc1 [Compound 591] | 2 | 2 | 38 | 0.13 |
| O=C(c1ccccc1)n1c(-c2ccc(F)cc2)nc2ccc(Cl)cc21 [Compound 493] | 1 | 1 | 16 | 0.03 |
| O=c1c2cccc3cccc(c32)c2cc3ccc(Cl)cc3n12 [Compound 405, 7-chloro-10-azapentacyclo[10.7.1.0^2,10.0^4,9.0^16,20]icosa 1(19),2,4(9),5,7,12,14,16(20),17-nonaen-11-one] | 8 | 31 |  | 0.78 |
| N#Cc1ccc(C(=O)n2c(-c3cccc4ccccc34)nc3ccc(Cl)cc32)cc1 [Compound 689] | 1 | 28 | 47 | 1.08 |
| O=C(c1ccccc1)n1c(-c2ccc3ccccc3c2)nc2ccc(F)cc21 [Compound 585] | 1 | 1 | 34 | 0.07 |
| O=C(c1ccc2c(c1)OCCO2)n1c(-c2cccc3ccccc23)nc2cc(Cl)ccc21 [Compound 851] | 1 | 21 | 29 | 0.84 |
| COc1ccc(-c2nc3ccc(Cl)cc3n2C(=O)c2ccccc2)cc1 [Compound 497] | 1 | 1.5 | 3.5 | 0.05 |
| O=C(c1ccc2c(c1)OCCO2)n1c(-c2cccc3ccccc23)nc2cc(Cl)ccc21 [Compound 850] | 1 | 22 | 33 | 0.88 |
| CC1(O)c2cccc3cccc(c23)-c2nc3ccccc3n21 (centres unmarked) [Compound 525, 7-methyl-7H-benzo[de]benzo[4,5]imidazo[2,1-a]isoquinolin-7-ol] | 1 | 5.6 | 20 | 0.4 |
| O=C(c1ccccc1)n1c(-c2ccc(F)c(Cl)c2)nc2cc(Cl)ccc21 [Compound 582] | 1 | 1 | 14 | 0.07 |
| COc1ccc(C(=O)n2c(-c3cccc4ccccc34)nc3ccc(Cl)cc32)cc1OC [Compound 683] | 1 | 26 | 34 | 1 |
| O=C1c2ccccc2-c2nc3ccc(Cl)cc3n21 [Compound 488, 4-chloro-1,8-diazatetracyclo[7.7.0.0^2,7.0^10,15]hexadeca-2,4,6,8,10,12,14-heptaen-16-one] | 1 | 1 | 4 | 0.03 |
| CN(C)c1ccc(C(=O)n2c(-c3cccc4ccccc34)nc3cc(Cl)ccc32)cc1 [Compound 685] | 1 | 13 | 28 | 0.5 |
| COc1ccc(C(=O)n2c(-c3cc4ccccc4s3)nc3cc(Cl)ccc32)cc1 [Compound 590] | 1 | 3 | 45 | 0.2 |

More lines, now with the values ahead:

| Fold @ 1 nM [fold] | Fold @ 100 nM [fold] | Fold @ 10 uM [fold] | Fold relative to benchmark @ 100 nM [fold] | Structure (SMILES) |
| --- | --- | --- | --- | --- |
| 1 | 2 | 13 | 0.07 | COC(=O)c1ccc2nc(-c3cccc4ccccc34)n(S(=O)(=O)c3ccc4ccccc4c3)c2c1 [Compound 1384] |
| 1 | 2 | 34 | 0.07 | O=C(c1ccccc1)n1c(-c2ccc(F)c3ccccc23)nc2cc(Cl)ccc21 [Compound 863] |
| 1 | 1 | 3 | 0.03 | CN1CCN(C(=O)c2ccc3c(c2)nc(-c2cccc4ccccc24)n3Cc2ccc(F)c(F)c2)CC1 [Compound 1364] |
| 1 | 2 | 6 | 0.07 | COC(=O)c1ccc2nc(-c3cccc4ccccc34)n(S(=O)(=O)c3ccc(Cl)cc3)c2c1 [Compound 1386] |
| 1 | 12 | 75 | 0.41 | O=C(c1ccc(F)c(F)c1)n1c(-c2cc3ccccc3o2)nc2cc(Cl)ccc21 [Compound 857] |
| 1 | 2 | 20 | 0.07 | O=C(c1ccc2c(c1)nc(-c1cccc3ccccc13)n2Cc1ccc(F)cc1)N1CCOCC1 [Compound 1403] |
| 1 | 1 | 1 | 0.03 | O=C(c1ccc2c(c1)nc(-c1cccc3ccccc13)n2Cc1ccc(F)c(F)c1)N1CCOCC1 [Compound 1329] |
| 1 | 2 | 82 | 0.07 | O=C(c1ccc(F)c(F)c1)n1c(-c2csc3ccccc23)nc2ccc(Cl)cc21 [Compound 862] |
| 1 | 10 | 73 | 0.34 | O=C(c1ccc(F)c(F)c1)n1c(-c2cc3ccccc3o2)nc2ccc(Cl)cc21 [Compound 858] |
| 1 | 1 | 2 | 0.03 | CN1CCN(C(=O)c2ccc3nc(-c4cccc5ccccc45)n(Cc4ccc(F)c(F)c4)c3c2)CC1 [Compound 1365] |
| 1 | 1 | 10 | 0.03 | O=C(c1ccc2c(c1)nc(-c1cccc3ccccc13)n2S(=O)(=O)c1ccc(Cl)cc1)N1CCCCC1 [Compound 1366] |
| 1 | 2 | 11 | 0.07 | COC(=O)c1ccc2c(c1)nc(-c1cccc3ccccc13)n2C(=O)c1ccc(Cl)cc1Cl [Compound 1328] |
| 1 | 12 | 68 | 0.41 | O=C(c1ccc(F)c(F)c1)n1c(-c2ccc(Cl)c3ccccc23)nc2cc(Cl)ccc21 [Compound 869] |
| 1 | 33 | 44 | 1.14 | O=C(c1cnc2ccccc2c1)n1c(-c2cccc3ccccc23)nc2cc(Cl)ccc21 [Compound 855] |
| 1 | 1 | 1 | 0.03 | COc1ccccc1S(=O)(=O)n1c(-c2cccc3ccccc23)nc2ccc(C(=O)N3CCCCC3)cc21 [Compound 1391] |
| 1 | 1 | 2 | 0.03 | O=C(c1ccc2nc(-c3cccc4ccccc34)n(S(=O)(=O)c3ccc(Cl)cc3)c2c1)N1CCOCC1 [Compound 1359] |
| 1 | 1 | 3 | 0.03 | O=C(c1ccc2nc(-c3cccc4ccccc34)n(S(=O)(=O)c3ccc(Cl)cc3)c2c1)N1CCCCC1 [Compound 1367] |
| 1 | 1 | 2 | 0.03 | O=C(c1ccc2nc(-c3cccc4ccccc34)n(S(=O)(=O)c3cccc(F)c3)c2c1)N1CCCCC1 [Compound 1369] |
| 1 | 1 | 9 | 0.02 | Fc1ccc(Cn2c(-c3cccc4ccccc34)nc3ccc(Cl)cc32)cc1F [Compound 888] |
